From PubChem BioAssay (NCI)
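How tested: cells in 96-well plates exposed to compound for 48 hours at five concentrations. TGI: total growth inhibition.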

Columns and labels:
Test in all cases: NCI-60 cell line screen, 48 h
MCF7 breast = system: MCF7 breast
CAKI-1 renal = system: CAKI-1 renal
SF-268 CNS = system: SF-268 CNS
HCT-15 colon = system: HCT-15 colon
SN12C renal = system: SN12C renal
HOP-62 NSCLC = system: HOP-62 NSCLC
SK-OV-3 ovarian = system: SK-OV-3 ovarian
MDA-N = system: MDA-N
U251 CNS = system: U251 CNS
SK-MEL-28 melanoma = system: SK-MEL-28 melanoma
UACC-257 melanoma = system: UACC-257 melanoma
UACC-62 melanoma = system: UACC-62 melanoma
SK-MEL-2 melanoma = system: SK-MEL-2 melanoma
SNB-19 CNS = system: SNB-19 CNS
MDA-MB-231 breast = system: MDA-MB-231 breast
M14 melanoma = system: M14 melanoma
786-0 renal = system: 786-0 renal
UO-31 renal = system: UO-31 renal
SW-620 colon = system: SW-620 colon
TK-10 renal = system: TK-10 renal
HT29 colon = system: HT29 colon
RXF 393 renal = system: RXF 393 renal
SR leukemia = system: SR leukemia
BT-549 breast = system: BT-549 breast
OVCAR-4 ovarian = system: OVCAR-4 ovarian
EKVX NSCLC = system: EKVX NSCLC
HCC-2998 colon = system: HCC-2998 colon
MOLT-4 leukemia = system: MOLT-4 leukemia
OVCAR-3 ovarian = system: OVCAR-3 ovarian
SF-539 CNS = system: SF-539 CNS
NCI-H460 lung = system: NCI-H460 lung
HCT-116 colon = system: HCT-116 colon
HL-60(TB) leukemia = system: HL-60(TB) leukemia
HOP-92 NSCLC = system: HOP-92 NSCLC
NCI-H226 lung = system: NCI-H226 lung
COLO 205 colon = system: COLO 205 colon
HS 578T breast = system: HS 578T breast
OVCAR-8 ovarian = system: OVCAR-8 ovarian
KM12 colon = system: KM12 colon
MALME-3M melanoma = system: MALME-3M melanoma
T-47D breast = system: T-47D breast
NCI-H522 lung = system: NCI-H522 lung
OVCAR-5 ovarian = system: OVCAR-5 ovarian
IGROV1 ovarian = system: IGROV1 ovarian
DU-145 prostate = system: DU-145 prostate
NCI/ADR-RES ovarian = system: NCI/ADR-RES ovarian
NCI-H23 lung = system: NCI-H23 lung
CCRF-CEM leukemia = system: CCRF-CEM leukemia
LOX IMVI melanoma = system: LOX IMVI melanoma
ACHN renal = system: ACHN renal
SK-MEL-5 melanoma = system: SK-MEL-5 melanoma
A549 NSCLC = system: A549 NSCLC
MDA-MB-435 = system: MDA-MB-435
A498 renal = system: A498 renal
PC-3 prostate = system: PC-3 prostate
RPMI-8226 leukemia = system: RPMI-8226 leukemia
SF-295 CNS = system: SF-295 CNS
K-562 leukemia = system: K-562 leukemia

SMILES: COCC12CCC(OC)C34C5CC6(O)C(OC)CC(OC(C)=O)(C5C6OC(=O)c5ccccc5)C(C(OC)C13)C4N(C)C2 (centres undefined)
- TGI (MCF7 breast): > 100 µM
- TGI (CAKI-1 renal): > 100 µM
- TGI (SF-268 CNS): > 100 µM
- TGI (HCT-15 colon): > 100 µM
- TGI (SN12C renal): > 100 µM
- TGI (HOP-62 NSCLC): > 100 µM
- TGI (SK-OV-3 ovarian): > 100 µM
- TGI (MDA-N): > 100 µM
- TGI (U251 CNS): > 100 µM
- TGI (SK-MEL-28 melanoma): > 100 µM
- TGI (UACC-257 melanoma): > 100 µM
- TGI (UACC-62 melanoma): > 100 µM
- TGI (SK-MEL-2 melanoma): > 100 µM
- TGI (SNB-19 CNS): > 100 µM
- TGI (MDA-MB-231 breast): > 100 µM
- TGI (M14 melanoma): > 100 µM
- TGI (786-0 renal): > 100 µM
- TGI (UO-31 renal): > 100 µM
- TGI (SW-620 colon): > 100 µM
- TGI (TK-10 renal): > 100 µM
- TGI (HT29 colon): > 100 µM
- TGI (RXF 393 renal): > 100 µM
- TGI (SR leukemia): > 100 µM
- TGI (BT-549 breast): > 100 µM
- TGI (OVCAR-4 ovarian): > 100 µM
- TGI (EKVX NSCLC): > 100 µM
- TGI (HCC-2998 colon): > 100 µM
- TGI (MOLT-4 leukemia): > 100 µM
- TGI (OVCAR-3 ovarian): > 100 µM
- TGI (SF-539 CNS): > 100 µM
- TGI (NCI-H460 lung): > 100 µM
- TGI (HCT-116 colon): > 100 µM
- TGI (HL-60(TB) leukemia): > 100 µM
- TGI (HOP-92 NSCLC): > 100 µM
- TGI (NCI-H226 lung): > 100 µM
- TGI (COLO 205 colon): > 100 µM
- TGI (HS 578T breast): > 100 µM
- TGI (OVCAR-8 ovarian): > 100 µM
- TGI (KM12 colon): > 100 µM
- TGI (MALME-3M melanoma): > 100 µM
- TGI (T-47D breast): > 100 µM
- TGI (NCI-H522 lung): > 100 µM
- TGI (OVCAR-5 ovarian): > 100 µM
- TGI (IGROV1 ovarian): > 100 µM
- TGI (DU-145 prostate): > 100 µM
- TGI (NCI/ADR-RES ovarian): > 100 µM
- TGI (NCI-H23 lung): > 100 µM
- TGI (CCRF-CEM leukemia): > 100 µM
- TGI (LOX IMVI melanoma): > 100 µM
- TGI (ACHN renal): > 100 µM
- TGI (SK-MEL-5 melanoma): > 100 µM
- TGI (A549 NSCLC): > 100 µM
- TGI (MDA-MB-435): > 100 µM
- TGI (A498 renal): > 100 µM
- TGI (PC-3 prostate): > 100 µM
- TGI (RPMI-8226 leukemia): > 100 µM
- TGI (SF-295 CNS): > 100 µM

SMILES: COc1ccc2[nH]c(C(=O)N3CC(CCl)c4c3cc(N)c3ccccc43)cc2c1 (centres undefined)
- TGI (MCF7 breast): 0.0353 µM
- TGI (CAKI-1 renal): < 0.01 µM
- TGI (SF-268 CNS): < 0.01 µM
- TGI (HCT-15 colon): 1.15 µM
- TGI (K-562 leukemia): > 100 µM
- TGI (SN12C renal): < 0.0183 µM
- TGI (HOP-62 NSCLC): 0.0358 µM
- TGI (SK-OV-3 ovarian): 0.964 µM
- TGI (MDA-N): < 0.01 µM
- TGI (U251 CNS): 0.0409 µM
- TGI (UACC-62 melanoma): < 0.0116 µM
- TGI (SK-MEL-2 melanoma): 0.0285 µM
- TGI (SNB-19 CNS): < 0.0386 µM
- TGI (UO-31 renal): < 0.0164 µM
- TGI (SW-620 colon): 0.132 µM
- TGI (TK-10 renal): 11.4 µM
- TGI (HT29 colon): 1.1 µM
- TGI (BT-549 breast): < 0.0261 µM
- TGI (OVCAR-4 ovarian): < 0.01 µM
- TGI (EKVX NSCLC): 0.128 µM
- TGI (HCC-2998 colon): < 0.01 µM
- TGI (MOLT-4 leukemia): < 0.0153 µM
- TGI (OVCAR-3 ovarian): > 100 µM
- TGI (HCT-116 colon): 1.09 µM
- TGI (HL-60(TB) leukemia): < 0.01 µM
- TGI (NCI-H226 lung): < 0.0225 µM
- TGI (COLO 205 colon): < 0.0167 µM
- TGI (OVCAR-8 ovarian): < 0.0177 µM
- TGI (KM12 colon): 0.263 µM
- TGI (T-47D breast): < 0.0281 µM
- TGI (OVCAR-5 ovarian): 0.315 µM
- TGI (IGROV1 ovarian): 18.2 µM
- TGI (DU-145 prostate): < 0.01 µM
- TGI (NCI/ADR-RES ovarian): < 0.0172 µM
- TGI (NCI-H23 lung): < 0.0109 µM
- TGI (CCRF-CEM leukemia): 0.0681 µM
- TGI (LOX IMVI melanoma): 0.0223 µM
- TGI (SK-MEL-5 melanoma): < 0.0112 µM
- TGI (A498 renal): 0.0399 µM
- TGI (PC-3 prostate): 0.0447 µM
- TGI (RPMI-8226 leukemia): 0.138 µM
- TGI (SF-295 CNS): < 0.0172 µM
